Here are results for ten molecules from patent US10973251B1, “Nutritional treatment for cancer” (The Board of Trustees of the Leland Stanford Junior …, priority 2015, dated 2021).

What all share (type): cell-based, human
The test system of one assay is HCC1187. Kind of assay: relative growth in dropout media (XTT / CellTiter-Glo). The conditions noted are these: —Cys (5x Met), vitamin supplementation 50x, three days, Cell-Titer-Glo. On the procedure:
(§1) To establish the screening assay for the nutritional weakness of cancer cells, 5 human blood cancer cell lines, 4 human lung cancer cell lines, 1 human colon cancer cell line, 1 human liver cancer cell line, 5 human breast cancer cell lines, and 3 human prostate cancer cell lines were used (Table 1). All 19 cell lines were cultured in reconstituted complementary RPM11640 based media R-comp (Table 2) for more than 10 days before screening assays.
(§2) To test for nutritional weaknesses of cancer cell lines or primary cancer cells, each individual non-essential amino acid was dropped out from the R-comp media (Table 2). Multiple amino acid dropout media was used to test combinatorial effects. Prior to the experiments, cells were first acclimated in R-comp media, and then harvested and washed in EBSS solution. The cell density was adjusted to 1-3×10^5 cells/ml before adding to equal volumes of 2× dropout media plus 2× R-comp (positive control) in a 96-well plate. The plates were then placed in an incubator set at 37° C. with a 5% CO2 supply. Five technical replicates were used for each medium treatment. For each cell line, at least three biological replicates were performed with 2 time-points (day 1 and day 3).
(§3) Cell growth was analyzed with two cell viability methods (XTT and CellTiter-Glo-based assays). In the XTT-based assay, cell growth is measured by absorbance at 450 nm after adding the XTT reagent to each culture and incubating under the same culture conditions for 2 hours according to the manufacturer's instructions (ThermoFisher X6493). Absorption at 690 nm was also measured as background and subtracted from absorption at 450 nm. In the CellTiter-Glo-based assay (Promega, G7572), cell growth is measured by luminescence with a dwelling time of 200 milliseconds on a Tecan plate reader.
(§4) The relative growth is calculated with the following equation: Growth %=(readingdropout−average(readingsblank))/(average(readingsR-comp)−average(readingsblank))×100%
(Tetrazolium assays rely on reduction of a dye to a coloured formazan, in cell work by metabolically active cells.)

The next assay relates to H520. The assay is described as above. Particulars: for relative growth: three days. As to the method:
as §1, §2, §3, §4

The next assay has as its system H69. The assay is described as above. The conditions noted are these: for relative growth: three days. On the procedure:
as §1, §2, §3, §4

Another assay relates to H661. Described as above. Particulars: for relative growth: three days; for relief of suppressed growth by augmented supplementation (in words): cystine and tyrosine dropouts, 20 times. As to the method:
as §1, §2, §3, §4

A further assay relates to Jurkat. Described as above. As to the method: as §1, §2, §3, §4
The test system of the next assay is H1437. The assay is described as above. As to the method: as §1, §2, §3, §4
A further assay has as its system K562. The assay is described as above. The conditions noted are these: for relative growth: —Cys, three days, CellTiter-Glo. On the procedure: as §1, §2, §3, §4
Background: In ATP-based viability assays light output follows the ATP content of the culture.

For a further assay, the system named is GA10. The description is as above. As to the method: as §1, §2, §3, §4
A further assay deals with U937. Described as above. The conditions noted are these: for relief of suppressed growth by augmented supplementation (in words): cystine and tyrosine dropouts, 20 times. On the procedure: as §1, §2, §3, §4
The subject of a further assay is HCT116. The assay is described as above. The conditions noted are these: for growth with vitamin supplementation in the absence of cystine (in words): 50×. On the procedure:
as §1, §2, §3, §4

The subject of a further assay is cancer cell lines. In words: growth assay in dropout media, cancer cell lines as a group. The conditions noted are these: up to 50× strength; cell lines sensitive to cystine dropout. As to the method: as §1
To test for nutritional weaknesses of cancer cell lines or primary cancer cells, each individual non-essential amino acid was dropped out from the R-comp media (Table 2). Multiple amino acid dropout media was used to test combinatorial effects. Prior to the experiments, cells were first acclimated in R-comp media, and then harvested and washed in EBSS solution. […]
Cell growth was analyzed with two cell viability methods (XTT and CellTiter-Glo-based assays). In the XTT-based assay, cell growth is measured by absorbance at 450 nm after adding the XTT reagent to each culture and incubating under the same culture conditions for 2 hours according to the manufacturer's instructions (ThermoFisher X6493). Absorption at 690 nm was also measured as background and subtracted from absorption at 450 nm. In the CellTiter-Glo-based assay (Promega, G7572), cell growth is measured by luminescence with a dwelling time of 200 milliseconds on a Tecan plate reader. […]

In the next assay the test system is MDA-MB-453. In words: relative growth in dropout media (XTT / CellTiter-Glo). As to the method:
as §1, §2, §3, §4

A further assay relates to HL60. The assay is described as above. Particulars: —Cys (5x Met), vitamin supplementation 50x, three days, Cell-Titer-Glo. As to the method: as §1, §2, §3, §4
Another assay has as its system HCC1599. Described as above. On the procedure:
as §1, §2, §3, §4

For another assay, the system named is HepG2. Described as above. The conditions noted are these: —Cys (5x Met), vitamin supplementation 50x, three days, Cell-Titer-Glo. On the procedure: as §1, §2, §3, §4
In a further assay the test system is C4-28. The assay is described as above. Particulars: —Cys (5x Met), vitamin supplementation 50x, three days, Cell-Titer-Glo. On the procedure:
as §1, §2, §3, §4

A further assay deals with MDA-MB-231. The assay is described as above. The conditions noted are these: —Cys (5x Met), vitamin supplementation 50x, three days, Cell-Titer-Glo. As to the method:
as §1, §2, §3, §4

A further assay relates to VCaP. Described as above. The conditions noted are these: —Cys (5x Met), vitamin supplementation 50x, three days, Cell-Titer-Glo. On the procedure:
as §1, §2, §3, §4

A further assay concerns PC-3. The assay is described as above. Particulars: —Cys (5x Met), vitamin supplementation 50x, three days, Cell-Titer-Glo. As to the method:
as §1, §2, §3, §4

The test system of the next assay is HCC70. The description is as above. The conditions noted are these: —Cys (5x Met), vitamin supplementation 50x, three days, Cell-Titer-Glo. As to the method:
as §1, §2, §3, §4

The mark [1] stands for this setting: —Cys (5x Met), vitamin supplementation 50x, Cell-Titer-Glo.
Setting [2] is: —Cys, +Glut 2.5x, CellTiter-Glo.
Setting [3] is: —Cys, +Glut 100x, CellTiter-Glo.
Setting [4] is: 0.1× level of cystine supplementation.
Setting [5] is: —Cys, +Cys 0.01x (5x Met), CellTiter-Glo.
Where [6] appears, read: —Cys, +Cys 0.02x (5x Met), CellTiter-Glo.
[7] abbreviates: —Cys, +Cys 0.05x (5x Met), CellTiter-Glo.
Where [8] appears, read: —Cys, +Cys 0.1x (5x Met), CellTiter-Glo.
Setting [9] is: —Cys, +Cys 0.5x (5x Met), CellTiter-Glo.
Setting [10] is: —Cys (5x Met), vitamin supplementation 50x, three days, Cell-Titer-Glo.

Consider `NC(=O)c1cccnc1` [B3, niacinamide], for which the relative growth with HCC1187 was determined as 3.4%; in the assay on H520 (setting [1]), 0.3%; in the assay on H69 (setting [1]) it was 5.3%; in the assay on H661 (setting [1]) it was 0.2%.
As for `N[C@@H](CCC(=O)N[C@@H](CS)C(=O)NCC(=O)O)C(=O)O` [+Glut, glutathione], the “restoration of growth suppressed by cystine dropout (in words)” value with Jurkat (10× supplementation) is reported as “substantially restored the suppressed growth”; in the assay on H1437 (10× supplementation) it was “substantially restored the suppressed growth”; with GA10 (10× supplementation) it was “not significantly”; in the assay on H69 (10× supplementation), “not significantly”. Further, the relative growth in the assay on K562 (+Glut 2.5x) was found to be 16.2%; with K562 (+Glut 10x), 78.8%; in the assay with K562 (+Glut 50x) it was 84.4%; in the assay on K562 (+Glut 100x), 98.9%; in the assay on H520 (setting [2]) it was 21.3%; in the assay on H520 (—Cys, +Glut 10x, CellTiter-Glo), 71.3%. For the same molecule, the relative growth was 97.8% in the assay on H520 (—Cys, +Glut 50x, CellTiter-Glo); 105.7% in the assay with H520 (setting [3]); 1.4% in the assay with H69 (setting [2]); 2.1% in the assay with H69 (—Cys, +Glut 10x, CellTiter-Glo); 3.6% with H69 (—Cys, +Glut 50x, CellTiter-Glo); 2.8% in the assay on H69 (setting [3]). Besides, the relative growth in the assay with H661 (setting [2]) worked out at 0.2%; in the assay with H661 (—Cys, +Glut 10x, CellTiter-Glo), 13.0%; in the assay on H661 (—Cys, +Glut 50x, CellTiter-Glo) it was 75.4%; with H661 (setting [3]), 41.1%.
Regarding `N[C@@H](Cc1ccccc1)C(=O)O` [phenylalanine], the “relief of suppressed growth by augmented supplementation (in words)” value in the assay on U937 and with H661 was “not brought back” throughout.
As to `N[C@@H](CSSC[C@H](N)C(=O)O)C(=O)O` [+Cys (5x Met), cystine], the “restoration of growth by adding back cystine (in words)” value in the assay on K562 (setting [4]) is on record as “substantially restored to the levels of the control”; with H520 (setting [4]), “merely restored”. Further, the relative growth is on record as 1.9% in the assay with K562 (+Cys 0.01x (5x Met)); 2.2% in the assay with K562 (+Cys 0.02x (5x Met)); 9.5% in the assay with K562 (+Cys 0.05x (5x Met)); 36.5% with K562 (+Cys 0.1x (5x Met)); 101.5% in the assay on K562 (+Cys 0.5x (5x Met)); 5.2% in the assay on H520 (setting [5]). Also, the relative growth in the assay with H520 (setting [6]) was determined as 4.7%; in the assay with H520 (setting [7]), 9.4%; with H520 (setting [8]), 41.8%; with H520 (setting [9]), 110.4%; in the assay on H69 (setting [5]) it was 1.2%; with H69 (setting [6]) it was 1.3%. The relative growth in the assay with H69 (setting [7]) is 1.2%; in the assay on H69 (setting [8]), 2.1%; in the assay on H69 (setting [9]), 51.8%; in the assay on H661 (setting [5]), 0.1%; with H661 (setting [6]), 0.1%; in the assay on H661 (setting [7]) it was 0.1%. In addition, the relative growth is given as 0.1% with H661 (setting [8]) and 103.2% with H661 (setting [9]).
Take `CSCC[C@H](N)C(=O)O` [+Met, methionine]: the “restoration of growth in the absence of cystine (in words)” value in the assay with HCT116 (10×) was “substantially restore HCT116 growth”. Besides, the “relief of suppressed growth by augmented supplementation (in words)” value in the assay with U937 and in the assay on H661 was “not brought back” throughout. Besides, the relative growth in the assay on K562 (+Met 10x) was 1.6%; in the assay with K562 (+Met 50x), 1.1%; in the assay with H520 (—Cys, +Met 10x, CellTiter-Glo) it was 7.3%; in the assay with H520 (—Cys, +Met 50x, CellTiter-Glo), 16.7%; with H69 (—Cys, +Met 10x, CellTiter-Glo), 1.2%; in the assay with H69 (—Cys, +Met 50x, CellTiter-Glo), 1.2%. Moreover, the relative growth with H661 (—Cys, +Met 10x, CellTiter-Glo) is recorded as 0.1%; with H661 (—Cys, +Met 50x, CellTiter-Glo), 0.1%. Moreover, in the assay with cancer cell lines, the “promotion of growth under cystine dropout (in words)” value is on record as “failed to promote the growth”.
Take `Cc1ncc(CO)c(CO)c1O` [B6, pyridoxine]: the relative growth in the assay on HCC1187 was found to be 2.2%; with H520 (setting [1]) it was 0.2%; with H69 (setting [1]), 5.2%; with H661 (setting [1]) it was 0.9%.
On the same counts, the results for `O=C(O)CCCC[C@@H]1SC[C@@H]2NC(=O)N[C@@H]21` [B7, biotin] are 5.8%, 0.2%, 5.7% and 0.2%.
As for calcium pantothenate [B5], the relative growth was 104.4% in the assay on MDA-MB-453 (setting [10]); 0.0% in the assay on HCC1187; 0.1% with HL60; 0.3% in the assay with Jurkat (setting [10]); 0.5% in the assay on H1437 (setting [10]); 4.9% in the assay with HCC1599 (setting [10]). For the same molecule, the relative growth with HCT116 (setting [10]) was 56.4%; with HepG2, 1.4%; in the assay on U937 (setting [10]) it was 0.0%; with C4-28, 0.2%; in the assay on MDA-MB-231, 0.2%; in the assay on H520 (setting [1]), 0.3%. Moreover, the relative growth amounted to 4.3% with GA10 (setting [10]); 0.1% in the assay with VCaP; 5.5% in the assay with H69 (setting [1]); 0.2% in the assay on H661 (setting [1]); 0.8% in the assay with PC-3; 0.9% in the assay with HCC70.
On to `Cc1ncc(C[n+]2csc(CCO)c2C)c(N)n1` [B1, thiamine], for which the “growth with vitamin supplementation in the absence of cystine (in words)” value in the assay on MDA-MB-453 (50×) is recorded as “growth was promoted”; with HCC1599 it was “substantially restored”; in the assay on HCT116 it was “largely restored”. Further, the relative growth with HCC1187 is 6.2%; with H520 (setting [1]), 0.5%; in the assay with H69 (setting [1]) it was 5.8%; in the assay on H661 (setting [1]), 1.5%.
With `Cc1cc2nc3c(=O)[nH]c(=O)nc-3n(C[C@H](O)[C@H](O)[C@H](O)CO)c2cc1C` [B2, riboflavin], the relative growth with HCC1187 came to 1.0%; with H520 (setting [1]), 0.3%; in the assay on H69 (setting [1]), 5.0%; in the assay on H661 (setting [1]), 0.2%. The “growth with vitamin supplementation in the absence of cystine (in words)” value in the assay with HCT116 is recorded as “even more drastic growth suppression”.
